The subject of experiment [1] is proviral SIV DNA. The experiment can be described thus: Proviral SIV DNA in PBMCs, lymph node and colon by qPCR (Example 205). Format: in vivo, rhesus macaques. The text has this:
A whole blood sample, an inguinal lymph node sample, and a colon pinch biopsy sample were taken from the animals dosed with the compound of Example 4 and from the animals dosed with the vehicle of Example 201 (placebo group) in the study described in Example 204. These samples were taken prior to initiation of dosing and two weeks after the last dose; all samples were taken while animals were on cART. Total DNA was isolated from each sample using commercially available blood and tissue DNA extraction kits. Proviral SIV DNA levels were measured by quantitative PCR (qPCR) using probe-primer sets specific to the SIV gag gene and normalization for cellular input by measuring the glyceraldehyde 3-phosphate dehydrogenase (GAPDH) gene levels. […] In one of the compound treated animals (166-08), there was only a noted decrease in the proviral DNA content in the PBMCs, a minor increase in lymph node, and a minor decrease in the colon. In the vehicle-dosed placebo control animals, however, there were slight to moderate increases in two of three animals in proviral SIV DNA in the PBMC and colon samples, and relatively stable levels in lymph node samples.
Background: In qPCR the cycle at which signal appears reflects the starting amount.

Experiment [2] deals with SIVmac251. Description: TLR7 modulating compound in cART treated SIV+ rhesus with undetectable plasma viremia: plasma SIV RNA during dosing and after cART cessation (Example 204). Format: in vivo, Indian rhesus macaques (Macaca mulatta). As to conditions: for Plasma SIV RNA: 0.3 mg/kg oral, on cART. Here is the method:
A group of 10 Indian rhesus macaques (Macaca mulatta) were treated with the compound of Example 4 or dosing vehicle of Example 201 (placebo group) in a multiple dose, dose escalation study. The macaques were infected with simian immunodeficiency virus (SIVmac251) by repeat low-dose rectal mucosal challenge. Beginning on day 65 post-infection, after establishment of peak viremia and an early viral chronic set point, the animals were treated with a the cART by sub-cutaneous injection at 1 mL/kg, the administration of which was for approximately one year. During the time of cART administration plasma viral loads decreased to undetectable levels (SIV gag RNA<50 copies/mL) by Day 168 post-infection, and were maintained for approximately 5 months prior to administration of the compound of Example 4 by use of daily cART. In addition, animals were maintained on the same cART regimen when dosed with the compound of Example 4. The amount of antiretrovirals administered to each animal, on a daily basis, in the cART formulation were 20 mg/kg tenofovir, 50 mg/kg emtricitibine (FTC), and 2.5 mg/kg dolutegravir. The animals were administered cART daily from approximately day 65 post-infection, through viral suppression and administration of the compound of Example 4 until approximately two weeks post-last dose of the compound from Example 4 at which time cART was stopped to monitor plasma viral load rebound kinetics.
Beginning on Day 317 post-infection, the animals were dosed once every other week with either the compound of Example 4 or dosing vehicle of Example 201 (placebo group). Four animals were dosed with the compound of Example 4, prepared as described in Example 201. The first week, 1 mL/kg of the 0.1 mg/mL formulation was dosed, corresponding to a dose of 0.1 mg/kg. The third week, 1 mL/kg of the 0.2 mg/mL formulation was dosed, corresponding to a dose of 0.2 mg/kg. On weeks five through thirteen, 1 mL/kg of the 0.3 mg/mL formulation was dosed, corresponding to a dose of 0.3 mg/kg (seven doses in total). The other six animals were controls, of which three were given seven doses of saline by oral gavage once every two weeks; the other three animals were left untreated. Approximately two weeks following the last dose of the compound of Example 4, cART was stopped in the three saline-dosed placebo animals and the four animals who had received the compound of Example 4. Approximately one month later, cART was stopped in the three untreated control animals. Following cART cessation viral loads were monitored for a period of six months.
Each formulation of the compound of Example 4 or dosing vehicle of Example 201 was thawed at room temperature prior to dosing. Animals were dosed by oral gavage via nasogastric tube.
Plasma viral loads (expressed as SIV RNA copies per mL of plasma) were determined by quantitative RT-PCR of the SIV RNA measuring the gag gene transcripts at various times throughout the study. Viral loads for each animal for each study day relative to time of administration of the first dose of the compound of Example 4 are depicted in FIG. 3; dosing days are shown by the arrows on the horizontal x-axis.
After two weeks following the last dose of study drug, cART therapy was also stopped in all dosed (placebo dosed included) animals. In the untreated control group of animals, cART was stopped 30 days later. Table 2 denotes the average viral load chronic set point from day 42-81 following cessation of cART for each of the animals in the study. […] However, when comparing the pre-cART plasma SIV RNA chronic set point to the post-cART cessation chronic set point within the animals administered the compound of Example 4 this was approximately ˜0.5 log10 lower (mean change for all animals treated with the compound of Example 4) than the change observed in those animals in the placebo group (mean change for all animals administered dosing vehicle of Example 201).

Experiment [3] concerns HIV in PBMCs from HIV-infected donors on suppressive cART. The experiment can be described thus: Activation of HIV by Example 49 ex vivo in PBMCs (Example 210). Format: cell-based, human. As to conditions: N = 18 donors, day 4. The procedure: PBMCs from 18 HIV-infected donors (Donor IDs 152-169) on suppressive cART were isolated, as described previously in Materials and Methods (PBMC Isolation), and immediately added to tissue culture plates pre-equilibrated at 37° C. with media containing DMSO or the compound of Example 49 (GS-9620) at 0.1 uM or 1.0 uM. At day 4 after treatment, cell-free culture supernatants were collected and HIV viral RNA was quantitated using the automated COBAS® AmpliPrep/COBAS® TaqMan® HIV-1 Test, v2.0 system (Roche Diagnostics, Indianapolis, Ind.), as described previously in Materials and Methods (HIV-1 Activation Assay). Geometric mean fold HIV activations from three independent wells for each donor and each condition were expressed as a ratio of HIV-1 RNA copies/ml detected in culture supernatants from TLR7 agonist treated and DMSO treated wells. Fold HIV activation values were plotted using GraphPad Prism software (GraphPad, San Diego, Calif.) and can be seen in FIG. 7. The dashed line indicates 2-fold induction.

“And” between values parts separate entries of the source, which are not always exact repeats. Identical values can stand only once.

On to `CCCCOc1nc(N)c2c(n1)N(Cc1ccc(CN3CCCC3)cc1)CC(=O)N2` [Example 4], for which, in experiment [1] (SIV+ rhesus on cART, prior to initiation of dosing, one line per animal), the “Proviral SIV DNA, PBMC, Pre” value is 150 copies/10^6 cells and 68 copies/10^6 cells and 160 copies/10^6 cells and 120 copies/10^6 cells. For the same compound, the “Proviral SIV DNA, PBMC, Post” value in experiment [1] (SIV+ rhesus on cART, two weeks after the last dose, one line per animal) is 100 copies/10^6 cells and 34 copies/10^6 cells and 89 copies/10^6 cells and 3 copies/10^6 cells. In addition, the “Proviral SIV DNA, Colon, Pre” value in experiment [1] (colon pinch biopsy, on cART, prior to initiation of dosing, one line per animal) is 230 copies/10^6 cells and 80 copies/10^6 cells and 150 copies/10^6 cells and 110 copies/10^6 cells. Also, the “Proviral SIV DNA, Colon, Post” value in experiment [1] (colon pinch biopsy, on cART, two weeks after the last dose, one line per animal) was 210 copies/10^6 cells and 3 copies/10^6 cells (3×). Also, in experiment [1] (inguinal lymph node, on cART, prior to initiation of dosing, one line per animal), the “Proviral SIV DNA, Lymph node, Pre” value is 270 copies/10^6 cells and 31 copies/10^6 cells and 210 copies/10^6 cells and 130 copies/10^6 cells. Also, the “Proviral SIV DNA, Lymph node, Post” value in experiment [1] (inguinal lymph node, on cART, two weeks after the last dose, one line per animal) was 280 copies/10^6 cells and 3 copies/10^6 cells (2×) and 84 copies/10^6 cells. The “change of proviral SIV DNA, pre- vs post-treatment, across PBMC, inguinal lymph node and colon” value in experiment [1] (within each animal, on cART) is “clear decrease in proviral DNA content for three of four animals”. The “Plasma SIV RNA” value in experiment [2] (Dose 4, 1 day post-dose) was less than 50 copies/mL; in experiment [2] (Dose 4, 3 days post-dose), less than 50 copies/mL; in experiment [2] (Dose 4, 7 days post-dose), less than 50 copies/mL; in experiment [2] (Dose 4, Pre) it was less than 50 copies/mL; in experiment [2] (Dose 5, 2 days post-dose), 344 copies/mL and 361 copies/mL and 563 copies/mL and 623 copies/mL; in experiment [2] (Dose 5, 7 days post-dose) it was less than 50 copies/mL. The “Plasma SIV RNA” value is less than 50 copies/mL in experiment [2] (Dose 5, Pre); less than 50 copies/mL in experiment [2] (Dose 6, 7 days post-dose); less than 50 copies/mL in experiment [2] (Dose 6, Pre); less than 50 copies/mL in experiment [2] (Dose 7, 7 days post-dose); less than 50 copies/mL in experiment [2] (Dose 7, Pre). In experiment [2] (SIV+ rhesus on cART), the “time virus levels remained undetectable after the last dose” value came to 13 days. Moreover, the “plasma virus levels returned to baseline prior to the following dose” value in experiment [2] (SIV+ rhesus on cART, 0.3 mg/kg doses) is recorded as less than 50 copies per mL. The “time after dose at which detectable plasma virus was observed” value in experiment [2] (SIV+ rhesus on cART, after each of the last three doses at 0.3 mg/kg, oral, once every other week) is 24 to 72 h. Also, the “pre-cART to post-cART cessation plasma SIV RNA chronic set point change, lower than the change in the placebo group” value in experiment [2] (mean change for all treated animals, set point day 42-81 following cessation of cART) is on record as roughly 0.5 log10. For the same compound, in experiment [2] (mean of the four dosed animals), the “Mean Change in Chronic Set Point” value was −1.26 -log10 copy/mL. Moreover, the “Plasma SIV RNA Chronic Set Point Day 42-81 Post-cART Cessation” value in experiment [2] (per animal, after seven doses (0.1, 0.2, 0.3 mg/kg) every other week) was 3,553 copy/mL and 10,062 copy/mL and 20,146 copy/mL and 24,527 copy/mL. Besides, the “Plasma SIV RNA Chronic Set Point Day 42-63 Pre-cART” value in experiment [2] (per animal, baseline before cART and before dosing) is 237,667 copy/mL and 76,833 copy/mL and 156,333 copy/mL and 666,333 copy/mL. Besides, the “Change in Chronic Set Point” value in experiment [2] (per animal, post-cART cessation versus pre-cART) was −1.83 -log10 copy/mL and −0.88 -log10 copy/mL and −0.89 -log10 copy/mL and −1.43 -log10 copy/mL.
For the compound `CCCCOc1nc(N)c2c(n1)N(Cc1cccc(CN3CCCC3)c1)CC(=O)N2` [Example 49], in experiment [3] (100 nM), the “Fold geometric mean (HIV activation)” value amounted to 9.3 fold, the “Fold range (HIV activation)” value is given as 2.7-26.6 fold and the “N (%) with ≥2-fold activation” value is 10 (56) N (%). Also, in experiment [3] (1,000 nM), the “Fold geometric mean (HIV activation)” value is reported as 6.5 fold, the “Fold range (HIV activation)” value is recorded as 2.0-21.5 fold and the “N (%) with ≥2-fold activation” value is 11 (61) N (%). Moreover, in experiment [3] (100 and/or 1,000 nM), the “Fold geometric mean (HIV activation)” value was determined as 9.1 fold, the “Fold range (HIV activation)” value is 2.0-26.6 fold and the “N (%) with ≥2-fold activation” value is given as 13 (72) N (%).

The values are drawn from patent US11116774B2, “Modulators of toll-like receptors for the treatment of HIV” (Gilead Sciences, Inc., priority 2014, dated 2021).
